Reference: ChEMBL document CHEMBL1157469, “Characterization of the drug binding specificity of rat liver fatty acid binding protein” (J Med Chem, 2008)
pKi: −log10 of the molar value.

Legend:
[1] = molecular target: T1, Fatty acid-binding protein, liver (Rattus norvegicus, UniProt P02692); test: Displacement of 1-anilinonaphthalene-8-sulphonic acid from rat recombinant L-FABP low binding affinity site expressed in Escherichia coli BL21 by competitive fluorescence displacement assay
T1 sequence (P02692 whole entry): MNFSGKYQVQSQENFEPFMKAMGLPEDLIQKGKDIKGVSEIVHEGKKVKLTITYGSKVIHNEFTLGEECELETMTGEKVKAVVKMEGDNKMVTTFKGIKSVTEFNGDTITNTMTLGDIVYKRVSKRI

[2] = molecular target: T1, Fatty acid-binding protein, liver; test: Displacement of 1-anilinonaphthalene-8-sulphonic acid from rat recombinant L-FABP high binding affinity site expressed in Escherichia coli BL21 by competitive fluorescence displacement assay
[3] = molecular target: T2, Fatty acid-binding protein, intestinal (Homo sapiens, UniProt P12104); test: Displacement of 1-anilinonaphthalene-8-sulphonic acid from I-FABP
T2 sequence (P12104 whole entry): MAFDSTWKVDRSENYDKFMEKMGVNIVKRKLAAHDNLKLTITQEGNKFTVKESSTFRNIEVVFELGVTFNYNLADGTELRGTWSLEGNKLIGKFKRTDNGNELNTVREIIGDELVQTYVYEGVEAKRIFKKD

Compound	pKi ([1]; read-out: Ki)	pKi ([2]; read-out: Ki)	pKi [3]	pKi [1]	pKi [2]
CC(C(=O)O)c1ccc(-c2ccccc2)c(F)c1 (stereo not given) [FLURBIPROFEN]	3.65	5.93	4.59	–	–
CC(C)Cc1ccc(C(C)C(=O)O)cc1 (stereo not given) [IBUPROFEN]	3.35	4.32	–	–	–
Cc1ccc(Cl)c(Nc2ccccc2C(=O)O)c1Cl [MECLOFENAMIC ACID]	6.59	6.42	5.05	–	–
CC(C)(Oc1ccc(CCNC(=O)c2ccc(Cl)cc2)cc1)C(=O)O [BEZAFIBRATE]	4.35	–	4.48	–	–
CC(C)(Oc1ccc(C(=O)c2ccc(Cl)cc2)cc1)C(=O)O [FENOFIBRIC ACID]	4.56	6.48	6.00	–	–
C[C@]12C=CC(=O)C=C1CC[C@@H]1[C@@H]2[C@@H](O)C[C@@]2(C)[C@H]1CC[C@]2(O)C(=O)CO [PREDNISOLONE]	4.00	5.58	–	–	–
CCOC(=O)C(C)(C)Oc1ccc(Cl)cc1 [CLOFIBRATE]	–	5.16	–	–	–
CC(=O)[C@H]1CC[C@H]2[C@@H]3CCC4=CC(=O)CC[C@]4(C)[C@H]3CC[C@]12C [PROGESTERONE]	–	7.57	4.70	–	–
CC(=O)Oc1ccccc1C(=O)O [ASPIRIN]	–	–	–	2.42	3.46
CC(C(=O)O)c1ccc(N2Cc3ccccc3C2=O)cc1 (stereo not given) [INDOPROFEN]	3.79	5.90	–	–	–
CC(C)OC(=O)C(C)(C)Oc1ccc(C(=O)c2ccc(Cl)cc2)cc1 [FENOFIBRATE]	6.39	7.62	–	–	–
Cc1ccc(C)c(OCCCC(C)(C)C(=O)O)c1 [GEMFIBROZIL]	3.75	5.73	–	–	–
C[C@@H]1C[C@H]2[C@@H]3CCC4=CC(=O)C=C[C@]4(C)[C@@]3(F)[C@@H](O)C[C@]2(C)[C@@]1(O)C(=O)CO [DEXAMETHASONE]	4.38	4.66	–	–	–
CC(C)(C)NCC(O)COc1cccc2c1CC(O)C(O)C2 (stereo not given) [NADOLOL]	–	2.64	–	–	–
O=C1Nc2ccc(Cl)cc2C(c2ccccc2Cl)=NC1O (stereo not given) [LORAZEPAM]	3.85	4.89	–	–	–
O=C(c1ccccc1)c1ccc2n1CCC2C(=O)O (stereo not given) [KETOROLAC]	3.92	4.94	–	–	–
O=C(O)Cc1ccccc1Nc1c(Cl)cccc1Cl [DICLOFENAC]	4.45	5.49	–	–	–
